Results from patent publication US20260053812A1, “METHODS OF TREATING HYPERTENSION WITH A COMBINATION OF AN ALDOSTERONE SYNTHASE INHIBITOR AND A DIURETIC” (Mineralys Therapeutics, Inc., priority 2022, published 2026).
“And” between values parts separate entries of the source, which are not always exact repeats. Equal values may be shown once. “Also recorded” adds a separate entry of the source. Marks after values point to notes of the source that are not given here.

Legend:
Format in all cases: in vivo, human
[1] = test system: subjects with uncontrolled hypertension; test: 24-hour ambulatory blood pressure monitoring (ABPM); settings: for Proportion of subjects with nighttime dip 10-20% in 24-hour systolic ABP / Proportion of subjects with nighttime dip <10% in 24-hour systolic ABP / Proportion of subjects with nighttime dip >20% in 24-hour systolic ABP: Part 1, FAS
Description: Ambulatory blood pressure monitoring was accomplished with an ambulatory blood pressure monitoring device that consists of a blood pressure cuff worn on a subject's arm attached to a small recording device that is typically attached to the subject's belt or waistband. The ABPM device is worn for 24 hours. Throughout that period, the device records the subject's blood pressure at regular intervals, during the subject's routine daily activities and while they are sleeping. The ABPM thus provides a complete record of the subject's blood pressure over a 24-hour period. 24-hour ABPM was measured in the clinic at baseline and Study Week 7. If, for any reason, the ABPM procedure was deemed a failure at the end of Study Week 7, it may have been repeated at Study Week 8 and therefore no imputation was employed regardless of use of rescue medications. Additionally, ABPM was also collected at the end of Study Week 4 in Part 2. If a repeat test was performed, it supersedes the original test results for that visit. Specific derived variables based on ABPM measurements include mean 24-hour, mean Daytime, and mean Nighttime of SBP, DBP, and heart rate. Change from baseline to Week 7 in 24-hour mean SBP (and DBP) based on ABPM will be analyzed using an ANCOVA with a term for treatment group and a baseline mean 24-hour value as a covariate. The nighttime dip is defined as 100% x(mean daytime SBP−mean nighttime SBP)/mean daytime SBP It is expressed as a percentage and is summarized by treatment group and visit using descriptive statistics. In addition, the number and percentage of subjects with nighttime dip in each of the dipper categories (Bloomfield & Park, 2015) is presented by treatment group and visit. The categories are: • (a) <10% • (b) 10-20% inclusive • (c) >20%

serum aldosterone = test: Pharmacodynamics: serum aldosterone; settings: for Aldosterone, mean observed: BL; for Aldosterone levels relative to baseline: Part 1 lorundrostat-treated (range across doses)
Description: (§1) PK/PD Analysis Set includes all subjects in the SAF who have sufficient data available for the analysis of pharmacokinetic and pharmacodynamic measurements. In the analyses based on PKPD, subjects will be analyzed according to the actual treatment received.

serum cortisol = test: Pharmacodynamics: serum cortisol; settings: for Cortisol, mean observed: BL
Description: as §1

11-deoxycorticosterone = test: Pharmacodynamics: 11-deoxycorticosterone
Description: as §1

plasma renin activity = test: Pharmacodynamics: plasma renin activity (PRA); settings: for Renin Activity, mean observed: BL
Description: as §1

Serum potassium = test: Serum potassium
Description: Safety endpoints of this study are: • (a) Incidence and severity of all spontaneously reported adverse events (AEs) • (b) Changes in vital signs (standing SBP, standing DBP, body temperature, heart rate, and respiratory rate) • (c) Changes in electrocardiogram parameters (including cardiac intervals: PR, QRS, QT, and corrected QT interval using Fridericia's formula) • (d) Changes in clinical laboratory assessments (hematology, chemistry, coagulation, and urinalysis) • (e) Change in office-measured SBP from Study Week 8 (end-of-treatment period to end of follow up (i.e. end of Study Week 12 for Part 1 and end of Study 10 for Part 2).
The Safety Analysis Set includes all enrolled subjects who received at least one dose of study treatment (MLS-101 or placebo). In analyses performed on the Safety Analysis Set, subjects will be analyzed according to their actual treatment received.

ACTH stimulation testing = settings: majority of Part 2 subjects, 100 mg QD, Baseline and after 8 weeks
Description: 11-deoxycorticosterone levels were unaffected. […] Due to supply chain disruption, the ability to perform ACTH stimulation testing was limited during the first part of the trial. However, the majority of subjects in Part 2 dosed with 100 mg QD, the maximum dose tested, had ACTH-stimulation testing performed at Baseline and after 8 weeks of treatment.

[2] = pooled (Part 1 and Part 2) 100 mg QD safety set (n=60)

CC(=O)N[C@H]1CC[C@H](NC(=O)CN2CCN(c3nncc(-c4ccc(C)cc4)n3)CC2)CC1 [Compound A HBr]
Proportion of subjects with nighttime dip 10-20% in 24-hour systolic ABP ([1]; 12.5 mg BID, EoT): (31.3) %
Proportion of subjects with nighttime dip <10% in 24-hour systolic ABP ([1]; 12.5 mg BID, EoT): (68.8) %
LSM Δ with Placebo, change from baseline in Nighttime Mean DBP (ABPM, ANCOVA) ([1]; 12.5 mg QD, End of Treatment, Part 1, FAS post-hoc): −1.53 mmHg
Proportion of subjects with nighttime dip 10-20% in 24-hour systolic ABP ([1]; 12.5 mg QD, EoT): (35.7) %
Proportion of subjects with nighttime dip <10% in 24-hour systolic ABP ([1]; 12.5 mg QD, EoT): (64.3) %
Proportion of subjects with nighttime dip 10-20% in 24-hour systolic ABP ([1]; 25 mg BID, EoT): (16.7) %
Proportion of subjects with nighttime dip <10% in 24-hour systolic ABP ([1]; 25 mg BID, EoT): (79.2) %
Proportion of subjects with nighttime dip >20% in 24-hour systolic ABP ([1]; 25 mg BID, EoT): (4.2) %
Proportion of subjects with nighttime dip 10-20% in 24-hour systolic ABP ([1]; 50 mg QD, EoT): (21.4) %
Proportion of subjects with nighttime dip <10% in 24-hour systolic ABP ([1]; 50 mg QD, EoT): (78.6) %
Proportion of subjects with nighttime dip 10-20% in 24-hour systolic ABP ([1]; 100 mg QD, EoT): (45.8) %
Proportion of subjects with nighttime dip <10% in 24-hour systolic ABP ([1]; 100 mg QD, EoT): (45.8) %
Proportion of subjects with nighttime dip >20% in 24-hour systolic ABP ([1]; 100 mg QD, EoT): (8.3) %
Subjects with nighttime dip 10-20% in 24-hour systolic ABP ([1]; 100 mg QD, EoT, Part 2, FAS): 9 n
Subjects with nighttime dip <10% in 24-hour systolic ABP ([1]; 100 mg QD, EoT, Part 2, FAS): 18 n
Subjects with nighttime dip >20% in 24-hour systolic ABP ([1]; 100 mg QD, EoT, Part 2, FAS): 0 n
Subjects with nighttime dip 10-20% in 24-hour systolic ABP ([1]; 100 mg QD, Week 4, Part 2, FAS): 6 n
Subjects with nighttime dip <10% in 24-hour systolic ABP ([1]; 100 mg QD, Week 4, Part 2, FAS): 18 n
Subjects with nighttime dip >20% in 24-hour systolic ABP ([1]; 100 mg QD, Week 4, Part 2, FAS): 1 n
Aldosterone, mean observed (serum aldosterone; Part 1, 12.5 mg BID): 6.636 ng/dL
Aldosterone, mean observed (serum aldosterone; Part 1, 12.5 mg QD): 7.065 ng/dL
Aldosterone, mean observed (serum aldosterone; Part 1, 25 mg BID): 6.558 ng/dL
Aldosterone, mean observed (serum aldosterone; Part 1, 50 mg QD): 6.205 ng/dL
Aldosterone, mean observed (serum aldosterone; Part 1, 100 mg QD): 6.533 ng/dL
Aldosterone levels relative to baseline (serum aldosterone; Week 4): −40.1% to 7.4%
Aldosterone levels relative to baseline (serum aldosterone; Week 12): −26.6% to 15.9%
Aldosterone, mean observed (serum aldosterone; Part 2, 100 mg QD): 6.435 ng/dL
Serum aldosterone levels (serum aldosterone; pharmacodynamic response across doses): dose-dependent reduction
Cortisol, mean observed (serum cortisol; Part 1, 12.5 mg BID): 10.195 µg/dL
Cortisol, mean observed (serum cortisol; Part 1, 12.5 mg QD): 9.443 µg/dL
Cortisol, mean observed (serum cortisol; Part 1, 25 mg BID): 10.577 µg/dL
Cortisol, mean observed (serum cortisol; Part 1, 50 mg QD): 10.807 µg/dL
Cortisol, mean observed (serum cortisol; Part 1, 100 mg QD): 11.272 µg/dL
Serum cortisol percent change from baseline (serum cortisol; Part 1 active arms (range across doses), Week 4): 3.8% to 19.2%
Serum cortisol percent change from baseline (serum cortisol; Part 1 active arms (range across doses), Week 8): 20.6% to 51.4%
Serum cortisol percent change from baseline (serum cortisol; Part 1 active arms (range across doses), Week 12, listed as lorundrostat): −1.2% to 22.7% and −1.2 to 22.6%
Serum cortisol percent change from baseline (serum cortisol; Part 2 100 mg QD, Week 12): 1.5%
Cortisol, mean observed (serum cortisol; Part 2, 100 mg QD): 11.118 µg/dL
Serum cortisol percent change from baseline (serum cortisol; Part 2, 100 mg QD, Week 4): 20.1%
Serum cortisol percent change from baseline (serum cortisol; Part 2, 100 mg QD, Week 8): 153.4%
Adrenocortical insufficiency (serum cortisol; during the trial, listed as lorundrostat): no adrenocortical insufficiency
Effect on serum cortisol (serum cortisol; [2]): no effects on serum cortisol
Morning serum cortisol levels (serum cortisol; summary of trial): modestly increased
11-Deoxycorticosterone, mean observed (11-deoxycorticosterone; Part 1, 12.5 mg BID, Wk 12): 8.0 ng/dL
11-Deoxycorticosterone, mean observed (11-deoxycorticosterone; Part 1, 12.5 mg QD, BL): 8.3 ng/dL
11-Deoxycorticosterone, mean observed (11-deoxycorticosterone; Part 1, 25 mg BID, Wk 12): 8.0 ng/dL
11-Deoxycorticosterone, mean observed (11-deoxycorticosterone; Part 1, 50 mg QD, BL): 8.3 ng/dL
11-Deoxycorticosterone, mean observed (11-deoxycorticosterone; Part 1, 100 mg QD, Wk 12): 8.4 ng/dL
11-deoxycorticosterone (11-deoxycorticosterone; Part 1 active treatment arms, Week 4 compared with placebo): Transient increases
11-Deoxycorticosterone, mean observed (11-deoxycorticosterone; Part 2, 100 mg QD, BL): 10.71 ng/dL
11-deoxycorticosterone levels (11-deoxycorticosterone; summary of trial): unaffected
Renin Activity, mean observed (plasma renin activity; Part 1, 12.5 mg BID): 1.299 µg/L/h
Renin Activity, mean observed (plasma renin activity; Part 1, 12.5 mg QD): 0.950 µg/L/h
Renin Activity, mean observed (plasma renin activity; Part 1, 25 mg BID): 1.104 µg/L/h
Renin Activity, mean observed (plasma renin activity; Part 1, 50 mg QD): 1.258 µg/L/h
Renin Activity, mean observed (plasma renin activity; Part 1, 100 mg QD): 0.956 µg/L/h
Renin Activity, mean observed (plasma renin activity; Part 2, 100 mg QD): 5.417 µg/L/h
Plasma renin activity (plasma renin activity; pharmacodynamic response, all doses, listed as lorundrostat): commensurate increase; also recorded: increased in all subjects treated with lorundrostat
Increase in potassium levels relative to baseline (Serum potassium; 25 mg BID Part 1, Week 8): 0.341 mmol/L
Serum K+ Mean Change from Baseline to Wk 8 (Serum potassium; 50 mg QD (n = 28)): +0.25 mmol/L
Serum K+ Mean Change from Baseline to Wk 8 (Serum potassium; 100 mg QD (n = 61)): +0.29 mmol/L
Increase in potassium levels relative to baseline (Serum potassium; 100 mg QD Part 2, Week 8): 0.208 mmol/L
Number of individuals with verified or multiple increased serum K+ 5.2-5.5 mMol/L during treatment (Serum potassium; 100 mg QD, Part 1): 5
Number of individuals with verified or multiple increased serum K+ 5.6-6.0 mMol/L during treatment (Serum potassium; 100 mg QD, Part 1): 3
Number of individuals with verified or multiple increased serum K+ 6.1-6.5 mMol/L during treatment (Serum potassium; 100 mg QD, Part 1): 0
Percent of individuals with increased serum K+ 5.2-5.5 mMol/L (Serum potassium; 100 mg QD, Part 1): (18.5%)
Percent of individuals with increased serum K+ 5.6-6.0 mMol/L (Serum potassium; 100 mg QD, Part 1): (10.7%)
Number of individuals with increased serum K+ >6.5 mMol/L during treatment (Serum potassium; 100 mg QD, Part 1, isolated incident not verified by repeat measurement): 1*
Number of individuals with verified or multiple increased serum K+ 5.2-5.5 mMol/L during treatment (Serum potassium; 100 mg QD, Part 2): 1
Number of individuals with verified or multiple increased serum K+ 5.6-6.0 mMol/L during treatment (Serum potassium; 100 mg QD, Part 2): 0
Number of individuals with verified or multiple increased serum K+ 6.1-6.5 mMol/L during treatment (Serum potassium; 100 mg QD, Part 2): 0
Number of individuals with verified or multiple increased serum K+ >6.5 mMol/L during treatment (Serum potassium; 100 mg QD, Part 2): 0
Percent of individuals with increased serum K+ 5.2-5.5 mMol/L (Serum potassium; 100 mg QD, Part 2): (4%)
Number of individuals with verified or multiple increased serum K+ 5.2-5.5 mMol/L during treatment (Serum potassium; 100 mg QD, Pooled): 6
Number of individuals with verified or multiple increased serum K+ 5.6-6.0 mMol/L during treatment (Serum potassium; 100 mg QD, Pooled): 3
Number of individuals with verified or multiple increased serum K+ 6.1-6.5 mMol/L during treatment (Serum potassium; 100 mg QD, Pooled): 0
Number of individuals with verified or multiple increased serum K+ >6.5 mMol/L during treatment (Serum potassium; 100 mg QD, Pooled): 0
Percent of individuals with increased serum K+ 5.2-5.5 mMol/L (Serum potassium; 100 mg QD, Pooled): (10.3%)
Percent of individuals with increased serum K+ 5.6-6.0 mMol/L (Serum potassium; 100 mg QD, Pooled): (5.2%)
Change in group mean serum potassium (K+), Mean (Serum potassium; Part 1, N 26*): +0.50 mMol/L
Change in group mean serum potassium (K+) (Serum potassium; Part 1, N 26* (dose not given in Table 5)): +0.50 mMol/L
Change in group mean serum potassium (K+), Mean (Serum potassium; Part 2, N 31): +0.23 mMol/L
Change in group mean serum potassium (K+) (Serum potassium; Part 2, N 31 (dose not given in Table 5)): +0.23 mMol/L
Change in group mean serum potassium (K+), Mean (Serum potassium; Pooled, N 57): +0.35 mMol/L
Change in group mean serum potassium (K+) (Serum potassium; Pooled, N 57 (dose not given in Table 5)): +0.35 mMol/L
Serum potassium levels (Serum potassium; active treatment cohorts compared with placebo, Parts 1 and 2): increased
Episodes of severe hyperkalemia (Serum potassium; [2]): no episodes of severe hyperkalemia
Subjects with transient elevated serum potassium greater than 6.0 mmol/L (Serum potassium; whole study, none an SAE, all resolved after discontinuation or dose adjustment, listed as lorundrostat): seven
ACTH-stimulation results (ACTH stimulation testing): no individuals with abnormal ACTH-stimulation results
